Data: publication PMC8580996, “2-Oxoglutarate derivatives can selectively enhance or inhibit the activity of human oxygenases” (Nature Communications, 2021)
Values joined by “and” are separate entries in the source; they are usually repeats but may differ in a detail not shown here. Equal values may be shown once.

Experiments:
[1] = molecular target: T1, FIH (Homo sapiens, UniProt Q9NWT6); assay: SPE-MS FIH turnover (cosubstrate) assay in the absence of 2OG; format: biochemical; settings: 330 μM 2OG or 2OG derivative, no 2OG, t = 15 min
In short: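 Purified recombinant FIH incubated with C3/C4-substituted 2OG derivatives in place of 2OG; substrate hydroxylation (+16 Da) read by SPE-MS on C4 cartridge. Value given as % conversion = 100 × product/(substrate + product) peak integrals.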

[2] = molecular target: T1, FIH; assay: FIH steady-state kinetic parameters (SPE-MS, initial hydroxylation rates); format: biochemical; design: slope of initial reaction rate: unit not given here
In short: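 FIH-catalysed CA1-20 peptide hydroxylation with varied 2OG or 2OG derivative, 20 μM ammonium iron(II) sulfate plus L-ascorbic acid, in 50 mM Tris, 50 mM NaCl, pH 7.5, 20 °C, monitored by SPE-MS (~1 sample/40 s). Initial rates fitted to Michaelis–Menten for vapp and Kapp; independent triplicates.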

T1 sequence (Q9NWT6 whole entry): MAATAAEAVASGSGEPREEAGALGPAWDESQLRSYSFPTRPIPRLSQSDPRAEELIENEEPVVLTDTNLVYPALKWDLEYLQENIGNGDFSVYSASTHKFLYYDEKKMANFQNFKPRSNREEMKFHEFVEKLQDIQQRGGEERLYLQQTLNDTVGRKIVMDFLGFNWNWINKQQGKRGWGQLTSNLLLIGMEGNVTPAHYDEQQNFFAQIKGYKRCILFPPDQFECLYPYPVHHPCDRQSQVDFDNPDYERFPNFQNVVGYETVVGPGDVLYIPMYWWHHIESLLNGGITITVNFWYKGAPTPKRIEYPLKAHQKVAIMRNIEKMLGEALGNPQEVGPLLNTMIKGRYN

FIH activity, %-substrate conversion ([1]; CA1–20 substrate): ~5% | FIH activity, %-substrate conversion ([1]; HIF-1α788–822 substrate): ~2% | SPE-MS determined concentration of hydroxylated HIF-1a peptide ([2]; 4 uM compound 22, time 2.098 min): 0.04779 µM and 0.05783 µM and 0.03772 µM | SPE-MS determined concentration of hydroxylated HIF-1a peptide ([2]; 4 uM compound 22, time 2.797 min): 0.05438 µM and 0.0588 µM and 0.03391 µM | SPE-MS determined concentration of hydroxylated HIF-1a peptide ([2]; 4 uM compound 22 as cosubstrate, time 3.49667 min, replicates 1-3): 0.05919 µM and 0.07205 µM and 0.04053 µM | SPE-MS determined concentration of hydroxylated HIF-1a peptide ([2]; 8 uM compound 22, time 0.699833 min): 0.02809 µM and 0.04706 µM and 0.04281 µM | SPE-MS determined concentration of hydroxylated HIF-1a peptide ([2]; 8 uM compound 22, time 2.098 min): 0.0572 µM and 0.06337 µM and 0.07945 µM | SPE-MS determined concentration of hydroxylated HIF-1a peptide ([2]; 8 uM compound 22, time 2.797 min): 0.05834 µM and 0.07508 µM and 0.08857 µM | SPE-MS determined concentration of hydroxylated HIF-1a peptide ([2]; 8 uM compound 22 as cosubstrate, time 3.49667 min, replicates 1-3): 0.08563 µM and 0.07413 µM and 0.09575 µM | SPE-MS determined concentration of hydroxylated HIF-1a peptide ([2]; 8 uM compound 22 as cosubstrate, time 4.19733 min, replicates 1-3): 0.0782 µM | SPE-MS determined concentration of hydroxylated HIF-1a peptide ([2]; 16 uM compound 22, time 0.699833 min): 0.06076 µM and 0.05382 µM and 0.0426 µM | SPE-MS determined concentration of hydroxylated HIF-1a peptide ([2]; 16 uM compound 22, time 2.098 min): 0.08485 µM and 0.09545 µM and 0.07537 µM | SPE-MS determined concentration of hydroxylated HIF-1a peptide ([2]; 16 uM compound 22, time 2.797 min): 0.09668 µM and 0.1092 µM and 0.09109 µM | SPE-MS determined concentration of hydroxylated HIF-1a peptide ([2]; 16 uM compound 22 as cosubstrate, time 3.49667 min, replicates 1-3): 0.105 µM and 0.1268 µM and 0.09176 µM | SPE-MS determined concentration of hydroxylated HIF-1a peptide ([2]; 32 uM compound 22, time 0.699833 min): 0.06848 µM and 0.06274 µM and 0.0479 µM | SPE-MS determined concentration of hydroxylated HIF-1a peptide ([2]; 32 uM compound 22, time 2.098 min): 0.1104 µM and 0.1151 µM and 0.1012 µM | SPE-MS determined concentration of hydroxylated HIF-1a peptide ([2]; 32 uM compound 22, time 2.797 min): 0.1309 µM and 0.1405 µM and 0.1242 µM | SPE-MS determined concentration of hydroxylated HIF-1a peptide ([2]; 32 uM compound 22 as cosubstrate, time 3.49667 min, replicates 1-3): 0.1431 µM and 0.1593 µM and 0.14 µM | SPE-MS determined concentration of hydroxylated HIF-1a peptide ([2]; 64 uM compound 22, time 0 min): 0.02766 µM and 0.02 µM and 0.02798 µM | SPE-MS determined concentration of hydroxylated HIF-1a peptide ([2]; 64 uM compound 22, time 0.699833 min): 0.06638 µM and 0.06107 µM and 0.07538 µM | SPE-MS determined concentration of hydroxylated HIF-1a peptide ([2]; 64 uM compound 22, time 2.098 min): 0.1181 µM and 0.1293 µM and 0.1259 µM | SPE-MS determined concentration of hydroxylated HIF-1a peptide ([2]; 64 uM compound 22, time 2.797 min): 0.146 µM and 0.1627 µM and 0.1536 µM | SPE-MS determined concentration of hydroxylated HIF-1a peptide ([2]; 64 uM compound 22 as cosubstrate, time 3.49667 min, replicates 1-3): 0.169 µM and 0.1906 µM and 0.171 µM | SPE-MS determined concentration of hydroxylated HIF-1a peptide ([2]; 128 uM compound 22, time 0.699833 min): 0.06651 µM and 0.09916 µM and 0.08534 µM | SPE-MS determined concentration of hydroxylated HIF-1a peptide ([2]; 128 uM compound 22, time 2.098 min): 0.1375 µM and 0.1676 µM and 0.1537 µM | SPE-MS determined concentration of hydroxylated HIF-1a peptide ([2]; 128 uM compound 22, time 2.797 min): 0.162 µM and 0.1955 µM and 0.1789 µM | SPE-MS determined concentration of hydroxylated HIF-1a peptide ([2]; 128 uM compound 22 as cosubstrate, time 3.49667 min, replicates 1-3): 0.1878 µM and 0.2084 µM and 0.2042 µM | SPE-MS determined concentration of hydroxylated HIF-1a peptide ([2]; 256 uM compound 22, time 0 min): 0.05949 µM and 0.04197 µM | SPE-MS determined concentration of hydroxylated HIF-1a peptide ([2]; 256 uM compound 22, time 0.699833 min): 0.1 µM and 0.09439 µM | SPE-MS determined concentration of hydroxylated HIF-1a peptide ([2]; 256 uM compound 22, time 2.098 min): 0.1712 µM and 0.1647 µM | SPE-MS determined concentration of hydroxylated HIF-1a peptide ([2]; 256 uM compound 22, time 2.797 min): 0.1988 µM and 0.1857 µM | SPE-MS determined concentration of hydroxylated HIF-1a peptide ([2]; 256 uM compound 22 as cosubstrate, time 3.49667 min, replicates 2-3 (replicate 1 empty)): 0.2377 µM and 0.2176 µM | slope of initial reaction rate ([2]; CA1-20, 16 μM 22): 0.001019 and 0.001398 and 0.001783 | slope of initial reaction rate ([2]; CA1-20, 32 μM 22): 0.002274 and 0.002243 and 0.002771 | slope of initial reaction rate ([2]; CA1-20, 64 μM 22): 0.003753 and 0.003305 and 0.003867 | slope of initial reaction rate ([2]; CA1-20, 128 μM 22): 0.0046 and 0.003872 and 0.004223 | slope of initial reaction rate ([2]; CA1-20, 256 μM 22): 0.004108 and 0.004197 and 0.004611 | FIH Kmapp ([2]; CA1–20 substrate): 39 µM | slope of initial reaction rate ([2]; HIF-1a788-822, 8 μM 22): 0.000249 and 0.000403 and 0.000322 | slope of initial reaction rate ([2]; HIF-1a788-822, 16 μM 22): 0.000332 and 0.000535 and 0.000447 | slope of initial reaction rate ([2]; HIF-1a788-822, 32 μM 22): 0.000561 and 0.000718 and 0.000685 | slope of initial reaction rate ([2]; HIF-1a788-822, 64 μM 22): 0.000686 and 0.000843 and 0.000711 | slope of initial reaction rate ([2]; HIF-1a788-822, 128 μM 22): 0.000874 and 0.000824 and 0.000795 | slope of initial reaction rate ([2]; HIF-1a788-822, 256 μM 22): 0.000833 and 0.000843 | FIH Kmapp ([2]; HIF-1α788–822 substrate): 15 µM
Compound: O=C(O)C(=O)C1CCC(C(=O)O)C1 (stereo not drawn) [compound 22, 3-(carboxycarbonyl)cyclopentane-1-carboxylic acid]
